Assay results: patent US20050282840A1, “Methods of modulating neurotrophin-mediated activity” (PainCeptor Pharma Corporation, priority 2004, published 2005)
Read-outs that look alike come from different tables or passages of the source.

What was measured:
p75^NTR = target: T1, p75^NTR (Rattus norvegicus, UniProt P07174); assay: 125I-BDNF crosslinking to p75^NTR receptors on nnr5 cells; assay type: binding; conditions: 0.1 nM 125I-BDNF, 2 h at 4° C., read-out: IC50 (mean±S.E.M), inhibition of 125I-BDNF crosslinking to p75^NTR
T1 construct: ^125I-BDNF crosslinking to p75^NTR receptors on nnr5 cells expressing p75^NTR; endogenous in cells; host or cells: PC12^nnr5 cells (TrkB-transfected)
T1 sequence (P07174 30-425): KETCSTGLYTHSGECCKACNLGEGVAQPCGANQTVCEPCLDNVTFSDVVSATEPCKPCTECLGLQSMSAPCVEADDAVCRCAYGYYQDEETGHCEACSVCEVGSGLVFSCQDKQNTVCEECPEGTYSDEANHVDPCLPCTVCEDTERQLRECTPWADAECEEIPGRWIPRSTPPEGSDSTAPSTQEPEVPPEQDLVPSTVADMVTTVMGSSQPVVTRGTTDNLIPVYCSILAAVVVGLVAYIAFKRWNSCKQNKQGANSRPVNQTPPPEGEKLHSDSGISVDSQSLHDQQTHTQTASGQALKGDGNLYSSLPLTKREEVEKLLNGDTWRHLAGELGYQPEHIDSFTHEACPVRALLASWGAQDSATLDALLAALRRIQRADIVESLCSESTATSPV
T1 sequence (P23560 129-247 partner): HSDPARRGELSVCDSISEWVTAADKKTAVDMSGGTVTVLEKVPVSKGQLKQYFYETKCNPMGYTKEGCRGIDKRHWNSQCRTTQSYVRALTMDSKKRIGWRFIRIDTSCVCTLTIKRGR
Procedure: Cells were incubated at 37° C. in 5% CO2. PC12 and PC12^nnr5 cells were maintained in RPMI-1640 medium supplemented with 10% fetal calf serum (FCS); cells were harvested by replacing the medium with calcium-magnesium-free balanced salt (Gey's) solution and incubating at 37° C. for 15 min. NIH-3T3 cells were grown in Dulbecco's modified Eagle medium: F12 containing 5% FCS; cells were harvested by replacing the medium with a 0.25% trypsin-0.53 mM ethylenediaminetetraacetic acid (EDTA) solution and incubating at 37° C. for 5 min.
The full-length TrkB cDNA was cloned into the CMV plasmid vector. Transient expression of TrkB in PC12^nnr5 cells was achieved by transfecting the cells with the TrkB expression vector using Lipofectamine Plus reagents (Invitrogen Canada Inc; Burlington, ON). PC12^nnr5 cells were passed through a syringe fitted with a 21-gauge needle several times to prevent clumping. In a 100 mm dish, 10×10^6 cells were plated and used for transfection the next day. […]
PC12 cells or TrkB-expressing PC12^nnr5 cells were recovered using Gey's solution, pelleted by centrifugation, and suspended in HKR (HEPES-Krebs Ringer Solution; [10 mM HEPES, 125 mM NaCl, 4.8 mM KCl, 1.3 mM CaCl2.2H2O, 1.2 mM MgSO4, 1.2 mM KH2PO4, 1 mg/mL BSA, 1 mg/mL glucose, pH 7.35]). […] Dried gels were registered to the autoradiograph and each labeled protein band was quantified by direct gamma counting. […]

[1] = system: p75^NTR receptors (PC12 cells); assay: Basic screening assay: binding of 125I-NGF to PC12 cells; conditions: for 125I-NGF Binding (% binding): Example 3 table; for NGF Activity % Maximal Binding: test compound 50 μM, 0.5 nM 125I-NGF, PC12 cells, 2 h at 4° C., specific binding as percent of control
Summary of the method: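 Inhibition of 0.5 nM 125I-NGF binding to p75NTR on PC12 cells was measured with compounds at 50 μM during 2 h rotation at 4° C. Cell-bound radioactivity from glycerol-cushion centrifugation was gamma-counted, giving NSB-corrected binding as % of control specific binding.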

[2] = target: T2, p75^NTR receptors (PC12 cells) (Rattus norvegicus, UniProt P07174); assay: Basic screening assay: binding of 125I-BDNF to PC12 cells; conditions: for 125I-BDNF Binding (% binding): Example 3 table; for activity at 50 µM: read-out: BDNF Activity % Maximal Binding
T2 construct: endogenous in cells; host or cells: PC12 cells
T2 sequence (P07174 30-425): T1 sequence (P07174 30-425)
T2 sequence (P23560 129-247 partner): T1 sequence (P23560 129-247 partner)
Summary of the method: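 4×10^6 PC12 cells incubated 2 h at 4° C, rotating, with 0.5 nM ^125I-BDNF (final) and compound at 50 μM, in duplicate or more. Bound ligand separated through 10% glycerol by centrifugation and counted by gamma counter; specific binding is Bmax minus NSB; inhibitors followed up for EC50.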

p75 [3] = assay: Neurotrophin-receptor crosslinking assay, 125I-NGF (Example 3); assay type: binding; conditions: for 125I-NGF X-linking Sample (% binding): crosslinked sample counted on gamma counter; for 125I-NGF X-linking p75 band (% binding): p75 band counted on gamma counter
Procedure: (§1) PC12 cells or TrkB-expressing PC12^nnr5 cells were recovered using Gey's solution, pelleted by centrifugation, and suspended in HKR (HEPES-Krebs Ringer Solution; [10 mM HEPES, 125 mM NaCl, 4.8 mM KCl, 1.3 mM CaCl2.2H2O, 1.2 mM MgSO4, 1.2 mM KH2PO4, 1 mg/mL BSA, 1 mg/mL glucose, pH 7.35]). In a total volume of 1 mL, 1×10^6 cells were incubated, rotating, with 0.1 nM ^125I-BDNF or ^125I-NGF and additions (Compound A or Compound B at the indicated final concentrations) for 2 h at 4° C. At the conclusion of the binding reaction, a 20 μL volume of BS^3 was added to a final concentration of 0.4 mM and incubated, rocking, for an additional 30 min at room temperature. Cells were washed twice in TBS. For analysis of ^125I-NGF crosslinking to TrkA, ^125I-NGF crosslinking to p75^NTR, and ^125I-BDNF crosslinking to p75^NTR, samples were solubilized directly in SDS sample buffer and heated for 10 min at 95° C. For analysis of ^125I-BDNF crosslinking to TrkB, samples were immunoprecipitated with a pan-Trk antibody. All samples were electrophoresed on a 6% SDS-polyacrylamide gel, dried, and autoradiographed. Dried gels were registered to the autoradiograph and each labeled protein band was quantified by direct gamma counting. Non-linear regression analysis was performed by Prism 3.0 to generate concentration-effect curves and determine IC50 values.
(§2) The neurotrophin-receptor crosslinking assay described in Example 1 was used to determine binding of compounds 65, 3, 43 and 97 to ^125I-NGF and ^125I-BDNF.
(§3) ^1The p75 band was excised from the gel and cpm were determined on a gamma counter. Values were calculated as follows: [formula]
(§4) ^2An aliquot of the total crosslinked sample in SDS-sample buffer was counted on a gamma counter. Values were calculated as follows: [formula]

p75 [4] = assay: Neurotrophin-receptor crosslinking assay, 125I-BDNF (Example 3); assay type: binding; conditions: for 125I-BDNF X-linking Sample (% binding): crosslinked sample counted on gamma counter; for 125I-BDNF X-linking p75 band (% binding): p75 band counted on gamma counter
Procedure: as §1, §2, §3, §4

[5] = Table 1, test compound 50 μM, 0.5 nM 125I-BDNF, PC12 cells, 2 h at 4° C., specific binding as percent of control
[6] = Table 4, test compound 50 μM, 0.5 nM 125I-BDNF, PC12 cells, 2 h at 4° C., specific binding as percent of control

## NS(=O)(=O)c1ccc(-c2ccc(/C=C3/SC(=S)N(CCC(=O)O)C3=O)o2)cc1 [Compound B]
p75^NTR
  IC50: 10.56 ± 0.05 µM

## Cc1cc(-c2ccc(C=C3C(=O)NC(=S)NC3=O)o2)c(C)c([N+](=O)[O-])c1 [Compound 3, 5-[5-(2,5-Dimethyl-3-nitrophenyl)furan-2-ylmethylene]-2-thioxo-dihydro-pyrimidine-4,6-dione]
[1]
  125I-NGF Binding (% binding): * (50 < *)
[1]; Table 1
  NGF Activity % Maximal Binding: * (50 < *)
[2]
  125I-BDNF Binding (% binding): XXXXX (0 < XXXXX < 10)
  activity at 50 µM: 0 to 10%
p75 [3]
  125I-NGF X-linking Sample (% binding): * (50 < *)
  125I-NGF X-linking p75 band (% binding): * (50 < *)
p75 [4]
  125I-BDNF X-linking Sample (% binding): XXXXX (0 < XXXXX < 10)
  125I-BDNF X-linking p75 band (% binding): XXXXX (0 < XXXXX < 10)

## O=C(O)c1cc(-c2ccc(/C=C3\NC(=O)N(c4cccc(Cl)c4)C3=O)o2)ccc1Cl [Compound 43, 2-Chloro-5-{5-[1-(3-chlorophenyl)-2,5-dioxo-imidazolidin-4-ylidenemethyl]furan-2-yl}benzoic acid]
[1]
  125I-NGF Binding (% binding): * (50 < *)
[1]; Table 1
  NGF Activity % Maximal Binding: * (50 < *)
[2]
  125I-BDNF Binding (% binding): XXX (20 < XXX < 30)
[2]; [5]
  activity at 50 µM: 30 to 40%
p75 [3]
  125I-NGF X-linking Sample (% binding): * (50 < *)
  125I-NGF X-linking p75 band (% binding): * (50 < *)
p75 [4]
  125I-BDNF X-linking Sample (% binding): XXX (20 < XXX < 30)
  125I-BDNF X-linking p75 band (% binding): XXXXX (0 < XXXXX < 10)

## O=C1NC(=O)/C(=C\c2ccc(-c3ccc(Cl)c([N+](=O)[O-])c3)o2)S1 [Compound 97, 5-[5-(4-Chloro-3-nitrophenyl)furan-2-ylmethylene]-thiazolidine-2,4-dione]
[1]
  125I-NGF Binding (% binding): * (50 < *)
[1]; Table 4
  NGF Activity % Maximal Binding: * (50 < *)
[2]
  125I-BDNF Binding (% binding): * (50 < *)
[2]; [6]
  activity at 50 µM: > 50%
p75 [3]
  125I-NGF X-linking Sample (% binding): * (50 < *)
  125I-NGF X-linking p75 band (% binding): * (50 < *)
p75 [4]
  125I-BDNF X-linking Sample (% binding): * (50 < *)
  125I-BDNF X-linking p75 band (% binding): XX (30 < XX < 40)

## O=C1NC(=S)NC(=O)C1=Cc1ccc(-c2ccc(C(=O)O)c(Cl)c2)o1 [Compound 65, 2-Chloro-4-[5-(4,6-dioxo-2-thioxo-tetrahydro-pyrimidin-5-ylidenemethyl)furan-2-yl]benzoic acid]
[1]
  125I-NGF Binding (% binding): XXX (20 < XXX < 30)
[1]; Table 2
  NGF Activity % Maximal Binding: XXX (20 < XXX < 30)
[2]
  125I-BDNF Binding (% binding): XXXXX (0 < XXXXX < 10)
  activity at 50 µM: 0 to 10%
p75 [3]
  125I-NGF X-linking Sample (% binding): * (50 < *)
  125I-NGF X-linking p75 band (% binding): * (50 < *)
p75 [4]
  125I-BDNF X-linking Sample (% binding): XXXXX (0 < XXXXX < 10)
  125I-BDNF X-linking p75 band (% binding): XXXXX (0 < XXXXX < 10)

## COc1cc([N+](=O)[O-])ccc1-c1ccc(C=C2C(=O)NN(c3cccc(C)c3)C2=O)o1 [Compound 138, 4-[5-(2-Methoxy-4-nitrophenyl)furan-2-ylmethylene]-1-m-tolyl-pyrazolidine-3,5-dione]
[1]; Table 4
  NGF Activity % Maximal Binding: * (50 < *)
[2]; [6]
  activity at 50 µM: > 50%

## Cc1c(-c2ccc(C=C3C(=O)NC(=O)NC3=O)o2)cccc1[N+](=O)[O-] [Compound 109, 5-[5-(2-Methyl-3-nitrophenyl)furan-2-ylmethylene]-pyrimidine-2,4,6-trione]
[1]; Table 4
  NGF Activity % Maximal Binding: * (50 < *)
[2]
  activity at 50 µM: > 50%

## O=C1NC(=S)N(c2ccc(F)cc2)C(=O)/C1=C\c1ccc(-c2cccc([N+](=O)[O-])c2)o1 [Compound 70, 1-(4-Fluorophenyl)-5-[5-(3-nitrophenyl)furan-2-ylmethylene]-2-thioxo-dihydro-pyrimidine-4,6-dione]
[1]; Table 2
  NGF Activity % Maximal Binding: X (40 < X < 50)
[2]
  activity at 50 µM: 0 to 10%

## COCCN1C(=O)C(=Cc2ccc(-c3cccc([N+](=O)[O-])c3)o2)SC1=S [Compound 34, 3-(2-Methoxy-ethyl)-5-[5-(3-nitrophenyl)furan-2-ylmethylene]-2-thioxo-thiazolidin-4-one]
[1]; Table 1
  NGF Activity % Maximal Binding: * (50 < *)
[2]; [5]
  activity at 50 µM: 10 to 20%

## COc1cc([N+](=O)[O-])ccc1-c1ccc(/C=C2\SC(=S)NC2=O)o1 [Compound 101, 5-[5-(2-Methoxy-4-nitrophenyl)furan-2-ylmethylene]-2-thioxo-thiazolidin-4-one]
[1]; Table 4
  NGF Activity % Maximal Binding: * (50 < *)
[2]; [6]
  activity at 50 µM: > 50%

## CCOC(=O)CN1C(=O)S/C(=C\c2ccc(-c3ccc(Cl)c(C(=O)O)c3)o2)C1=O [Compound 115, 2-Chloro-5-[5-(3-ethoxycarbonylmethyl-2,4-dioxo-thiazolidin-5-ylidenemethyl)furan-2-yl]benzoic acid]
[1]; Table 4
  NGF Activity % Maximal Binding: * (50 < *)
[2]; [6]
  activity at 50 µM: > 50%

## O=C(O)c1ccc(-c2ccc(/C=C3/NC(=O)N(Cc4ccc(F)cc4)C3=O)o2)cc1 [Compound 126, 4-{5-[1-(4-Fluorobenzyl)-2,5-dioxo-imidazolidin-4-ylidenemethyl]furan-2-yl}benzoic acid]
[1]; Table 4
  NGF Activity % Maximal Binding: * (50 < *)
[2]; [6]
  activity at 50 µM: > 50%

## O=C1NC(=S)N/C1=C/c1ccc(-c2ccc(Cl)c([N+](=O)[O-])c2)o1 [Compound 93, 5-[5-(4-Chloro-3-nitrophenyl)furan-2-ylmethylene]-2-thioxo-imidazolidin-4-one]
[1]; Table 4
  NGF Activity % Maximal Binding: * (50 < *)
[2]; [6]
  activity at 50 µM: > 50%

## Cc1ccc(N2NC(=O)/C(=C/c3ccc(-c4ccc(S(N)(=O)=O)cc4)o3)C2=O)cc1 [Compound 102, 4-[5-(3,5-Dioxo-1-p-tolyl-pyrazolidin-4-ylidenemethyl)furan-2-yl]benzenesulfonamide]
[1]; Table 4
  NGF Activity % Maximal Binding: * (50 < *)
[2]; [6]
  activity at 50 µM: > 50%
